According to paper PMC12040169 (PLOS Biology, 2025):

Assay: in vitro
Settings: human, hela cells, % viability

SMILES | viability at 28.5 h, 10 µM (bulk resorufin, single well) [%] | viability at 28.5 h, 10 µM [%]
O=C1NC(=O)C(=Cc2ccc([N+](=O)[O-])o2)C(=O)N1 [CBK017848] | 106 | –
COC(=O)C[C@@H](C)NC(=O)[C@](OC)(c1ccccc1)C(F)(F)F [CBK017864] | – | 98.6
CCCN(CCC)CCc1cccc2c1CCN2C(=O)c1cc2ccccc2s1 [CBK017871C] | – | 93.2
COC(=O)c1ccc2cccnc2c1O [CBK017876] | – | 90.9
O=C(Nc1ccc(Cl)cc1)N1CCN(CCCCc2ccc(F)cc2)CC1 [CBK017951C] | – | 111
NC(=O)c1ccc(Nc2cc(N)ncn2)cc1 [CBK017969] | – | 94.1
Cc1cc(C)c2nc(O)nc(O)c2c1 [CBK017986] | – | 94.4
CC(=S)NCC1CC(c2ccc(N3CC[S+]([O-])CC3)c(F)c2)=NO1 (stereo not shown) [CBK017992] | – | 110
O=C(NCc1ccc(Cl)cc1)c1cnc2ccc(CN3CCSCC3)cc2c1O [CBK018010] | – | 97.9
Fc1cc2c3c(c1)c1c(n3CCO2)CCNCC1 [CBK018018C] | – | 102
Cn1cnnc1SCc1nc(N)nc(Nc2ccccc2)n1 [CBK018022] | – | 106
CCN(CC)CCNC(=O)c1c(C)oc2cc(Br)c(OC)cc12 [CBK018064] | – | 87.3
CC(C)(C)C(=O)Nc1cccc(OC(F)(F)C(F)Cl)c1 (stereo not shown) [CBK018091] | – | 95
Cc1nc2ccccc2[nH]/c1=N/O [CBK018103] | – | 104
CCOC(=O)c1nnc(-c2cccs2)nc1NC1CCCCC1 [CBK018110] | – | 86.8
CC(C)Oc1cc(NC(=O)CS(=O)(=O)CC(=O)N(C)C)c(Cl)cc1Cl [CBK018112] | – | 113
CC12CCC(C(=O)Nc3ccccc3)(OC1=O)C2(C)C (stereo not shown) [CBK018129] | – | 96.4
COCc1cc(C)nc2sc(C(N)=O)c(N)c12 [CBK018149] | – | 93
O=c1[nH]c2cc3nn[nH]c3cc2[nH]1 [CBK018154] | – | 99.9
Sc1nnc2sc3ccccc3n12 [CBK018156] | – | 103
Cc1ccc(-c2ccc(/C=C/c3cc(C(F)(F)F)nc(=O)[nH]3)o2)cc1Cl [CBK018169] | – | 103
COc1ccc2cc(/C=N/NC(=O)CN3CCCCC3)c(Cl)nc2c1 [CBK018181] | – | 95.3
Cc1cc(C)c2nn[nH]c2c1CN1CCCC1 [CBK018196] | – | 100
O=C(NCCCO)c1c(O)c2ccccc2[nH]c1=O [CBK018215] | – | 71.7
Cc1sc2nc(NCCO)nc(O)c2c1C [CBK018257] | – | 86.9

SMILES | viability at 28.5 h, 10 µM (bulk resorufin, single well) [%] | viability at 28.5 h, 10 µM [%]
CCOC(=O)NC(=S)NCCCn1ccnc1 [CBK018272] | – | 112
CSc1nc(N)c2c3c(sc2n1)CN(C)CC3 [CBK018303] | – | 122
O=C(OCc1nc2cc3ccccc3cc2[nH]1)C1CCCCC1 [CBK018307] | – | 94
Cc1c2cn[nH]c(=O)c2c(C)n1-c1ccccc1 [CBK018349] | – | 98.3
CCOC(=O)c1ccc(NC(=S)NCCN(CC)CC)cc1 [CBK018358] | – | 104
Cc1cc2c3c(c1)c1c(n3CCC2)CCNCC1 [CBK018380C] | – | 96.9
Cc1ncccc1Oc1ccc(NC(=O)N2CCc3ccccc3CC2)cn1 [CBK018383] | – | 96.6
COc1ccccc1N/C(=N\OCc1ccc(Cl)cc1Cl)c1nonc1N [CBK018391] | – | 91
O=S1(=O)C=C(c2ccc(Cl)cc2)S(=O)(=O)CC1 [CBK018403] | – | 86.3
CCOC(=O)c1cnc2ccc(C(CCOCc3ccccc3)OCc3ccccc3)cc2c1O (stereo not shown) [CBK018405] | – | 93.8
Fc1cc2c3c(c1)c1c(n3CCC2)CCNCC1 [CBK018406C] | – | 105
NC1=C(N)OC(Oc2ccccc2C(F)(F)F)=NN1 [CBK018424] | – | 57.2
Clc1ccc(-c2cc(CN3CCCCC3)no2)cc1Cl [CBK018435] | – | 102
O=S(=O)(c1ccccc1)c1ccc(N2CCNCC2)cc1 [CBK018452] | – | 97.8
CCCN1CCC(N2CCN(c3ccc([N+](=O)[O-])cc3)CC2)CC1 [CBK018459] | – | 96.3
CCOC(=O)c1cnc(C(C)(C)C)nc1O [CBK018470] | – | 88.6
COc1ccccc1C(=O)NC1CN2CCC1CC2 (stereo not shown) [CBK018475C] | – | 75.5
O=C(NCc1ccc(Cl)cc1)c1cn(-c2ccccc2)c2ccc(CN3CCOCC3)cc2c1=O [CBK018481] | – | 98.7
CSC(=S)n1c(C)nc2ccccc21 [CBK018539] | – | 92.3
CC1(C)CN(c2ccc(Cl)cn2)C1=O [CBK018550] | – | 93.6
COc1ccnc(Sc2ccc(Cl)cc2)c1C#N [CBK018571] | – | 92.2
CC(=O)c1c2c(c(N3CCN(C#N)CC3)[nH]c1=S)CC(C)(C)OC2 [CBK018622] | – | 86.3
COC(=O)NC(=S)Nc1ccc2c(c1)OCCO2 [CBK018644] | – | 79
S=c1ccc(N/N=C/C2CC=CCC2)n[nH]1 (stereo not shown) [CBK018655] | – | 95.3
